Activity calls are given as the source filed them. The rule behind the calls is not given here.
Legend:
HCT-116 [1] = test: Induction of apoptosis in human HCT-116 cells assessed as downregulation of TYMS gene expression at 10 to 500 nM incubated for 6 to 48 hrs by RNA analysis; type: functional, cell-based; conditions: dose 10-500 nM, time 6-48 hrs
HCT-116 [2] = test: Induction of apoptosis in human HCT-116 cells assessed as downregulation of NUP210 gene expression at 10 to 500 nM incubated for 6 to 48 hrs by RNA analysis; type: functional, cell-based; conditions: dose 10-500 nM, time 6-48 hrs
HCT-116 [3] = test: Induction of apoptosis in human HCT-116 cells assessed as modulation of DDX6 mRNA expression at 10 to 500 nM incubated for 6 to 48 hrs by RNA analysis; type: functional, cell-based; conditions: dose 10-500 nM, time 6-48 hrs
HCT-116 [4] = test: Induction of apoptosis in human HCT-116 cells assessed as upregulation of DDX5 mRNA expression at 50 nM incubated for 24 hrs by RNA analysis; type: functional, cell-based
HCT-116 [5] = test: Induction of apoptosis in human HCT-116 cells assessed as downregulation of NT5C gene expression at 10 to 500 nM incubated for 6 to 48 hrs by RNA analysis; type: functional, cell-based; conditions: dose 10-500 nM, time 6-48 hrs
HCT-116 [6] = test: Induction of apoptosis in human HCT-116 cells assessed as downregulation of GART gene expression at 10 to 500 nM incubated for 6 to 48 hrs by RNA analysis; type: functional, cell-based; conditions: dose 10-500 nM, time 6-48 hrs
HCT-116 [7] = test: Induction of apoptosis in human HCT-116 cells assessed as modulation of DDX47 mRNA expression at 10 to 500 nM incubated for 6 to 48 hrs by RNA analysis; type: functional, cell-based; conditions: dose 10-500 nM, time 6-48 hrs
HCT-116 [8] = test: Induction of apoptosis in human HCT-116 cells assessed as downregulation of TPI1 gene expression at 10 to 500 nM incubated for 6 to 48 hrs by RNA analysis; type: functional, cell-based; conditions: dose 10-500 nM, time 6-48 hrs
HCT-116 [9] = test: Induction of apoptosis in human HCT-116 cells assessed as modulation of DDX55 mRNA expression at 10 to 500 nM incubated for 6 to 48 hrs by RNA analysis; type: functional, cell-based; conditions: dose 10-500 nM, time 6-48 hrs
HCT-116 [10] = test: Induction of apoptosis in human HCT-116 cells assessed as downregulation of LIPE gene expression at 10 to 500 nM incubated for 6 to 48 hrs by RNA analysis; type: functional, cell-based; conditions: dose 10-500 nM, time 6-48 hrs
HCT-116 [11] = test: Induction of apoptosis in human HCT-116 cells assessed as upregulation of GADD45A mRNA expression at 10 to 500 nM incubated for 6 to 48 hrs by RNA analysis; type: functional, cell-based; conditions: dose 10-500 nM, time 6-48 hrs
HCT-116 [12] = test: Induction of apoptosis in human HCT-116 cells assessed as downregulation of AK2 gene expression at 10 to 500 nM incubated for 6 to 48 hrs by RNA analysis; type: functional, cell-based; conditions: dose 10-500 nM, time 6-48 hrs
HCT-116 [13] = test: Activation of innate immune response in human HCT-116 cells assessed as upregulation of CASP1 gene expression at 10 to 500 nM incubated for 6 to 48 hrs by RNA analysis; type: functional, cell-based; conditions: dose 10-500 nM, time 6-48 hrs
HCT-116 [14] = test: Induction of apoptosis in human HCT-116 cells assessed as increase in intracellular ROS level at 10 to 1000 nM incubated for 12 hrs by DCFH-DA staining based fluorescence microscopy; type: functional, cell-based; conditions: dose 10-1000 nM
HCT-116 [15] = test: Activation of innate immune response in human HCT-116 cells assessed as upregulation of IL-12B gene expression at 10 to 500 nM incubated for 6 to 48 hrs by RNA analysis; type: functional, cell-based; conditions: dose 10-500 nM, time 6-48 hrs
HCT-116 [16] = test: Activation of innate immune response in human HCT-116 cells assessed as upregulation of IRF3 gene expression at 10 to 500 nM incubated for 6 to 48 hrs by RNA analysis; type: functional, cell-based; conditions: dose 10-500 nM, time 6-48 hrs
HCT-116 [17] = test: Induction of apoptosis in human HCT-116 cells assessed as modulation of TOP1 mRNA expression at 10 to 500 nM incubated for 6 to 48 hrs by RNA analysis; type: functional, cell-based; conditions: dose 10-500 nM, time 6-48 hrs
HCT-116 [18] = test: Induction of apoptosis in human HCT-116 cells assessed as downregulation of CTPS2 gene expression at 10 to 500 nM incubated for 6 to 48 hrs by RNA analysis; type: functional, cell-based; conditions: dose 10-500 nM, time 6-48 hrs
MCF7 = test: Growth inhibition of human MCF7 cells incubated for 48 hrs by MTT reagent based ELISA reader analysis; type: functional, cell-based; conditions: MCF7, 48 h
HCT-116 [19] = test: Induction of apoptosis in human HCT-116 cells assessed as downregulation of PPP2CA gene expression at 10 to 500 nM incubated for 6 to 48 hrs by RNA analysis; type: functional, cell-based; conditions: dose 10-500 nM, time 6-48 hrs
HCT-116 [20] = test: Induction of apoptosis in human HCT-116 cells assessed as downregulation of PUDP gene expression at 10 to 500 nM incubated for 6 to 48 hrs by RNA analysis; type: functional, cell-based; conditions: dose 10-500 nM, time 6-48 hrs
HCT-116 [21] = test: Inhibition of cell migration in human HCT-116 cells assessed as intercellular distance at 5 nM incubated for 24 hrs by inverted phase-contrast microscopic analysis (reference value: 1 +/- 0.2 millimeter); type: functional
HCT-116 [22] = test: Induction of apoptosis in human HCT-116 cells assessed as modulation of DDX17 mRNA expression at 10 to 500 nM incubated for 6 to 48 hrs by RNA analysis; type: functional, cell-based; conditions: dose 10-500 nM, time 6-48 hrs
HCT-116 [23] = test: Induction of apoptosis in human HCT-116 cells assessed as upregulation of XPC mRNA expression at 10 to 500 nM incubated for 6 to 48 hrs by RNA analysis; type: functional, cell-based; conditions: dose 10-500 nM, time 6-48 hrs
HCT-116 [24] = test: Induction of apoptosis in human HCT-116 cells assessed as modulation of TOP2A mRNA expression at 10 to 500 nM incubated for 6 to 48 hrs by RNA analysis; type: functional, cell-based; conditions: dose 10-500 nM, time 6-48 hrs
HCT-116 [25] = test: Induction of apoptosis in human HCT-116 cells assessed as downregulation of BIRC5 mRNA expression at 10 to 500 nM incubated for 6 to 48 hrs by RNA analysis; type: functional, cell-based; conditions: dose 10-500 nM, time 6-48 hrs
HCT-116 [26] = test: Induction of apoptosis in human HCT-116 cells assessed as downregulation of NT5C2 gene expression at 10 to 500 nM incubated for 6 to 48 hrs by RNA analysis; type: functional, cell-based; conditions: dose 10-500 nM, time 6-48 hrs
HCT-116 [27] = test: Induction of apoptosis in human HCT-116 cells assessed as downregulation of GTF2H1 mRNA expression at 10 to 500 nM incubated for 6 to 48 hrs by RNA analysis; type: functional, cell-based; conditions: dose 10-500 nM, time 6-48 hrs
HCT-116 [28] = test: Induction of apoptosis in human HCT-116 cells assessed as downregulation of DPYD gene expression at 10 to 500 nM incubated for 6 to 48 hrs by RNA analysis; type: functional, cell-based; conditions: dose 10-500 nM, time 6-48 hrs
HCT-116 [29] = test: Activation of innate immune response in human HCT-116 cells assessed as upregulation of IFIH1 gene expression at 10 to 500 nM incubated for 6 to 48 hrs by RNA analysis; type: functional, cell-based; conditions: dose 10-500 nM, time 6-48 hrs
HCT-116 [30] = test: Induction of apoptosis in human HCT-116 cells assessed as downregulation of HK2 gene expression at 10 to 500 nM incubated for 6 to 48 hrs by RNA analysis; type: functional, cell-based; conditions: dose 10-500 nM, time 6-48 hrs
HCT-116 [31] = test: Induction of apoptosis in human HCT-116 cells assessed as downregulation of SLC25A13 gene expression at 10 to 500 nM incubated for 6 to 48 hrs by RNA analysis; type: functional, cell-based; conditions: dose 10-500 nM, time 6-48 hrs
HCT-116 [32] = test: Induction of apoptosis in human HCT-116 cells assessed as downregulation of HPRT1 gene expression at 10 to 500 nM incubated for 6 to 48 hrs by RNA analysis; type: functional, cell-based; conditions: dose 10-500 nM, time 6-48 hrs
HCT-116 [33] = test: Induction of apoptosis in human HCT-116 cells assessed as downregulation of MCL-1 protein expression incubated for 48 hrs by Western blotting analysis; type: functional, cell-based

SMILES	Activity (HCT-116 [1])	Activity (HCT-116 [2])	Activity (HCT-116 [3])	Activity (HCT-116 [4])	Activity (HCT-116 [5])	Activity (HCT-116 [6])	Activity (HCT-116 [7])	Activity (HCT-116 [8])	Activity (HCT-116 [9])	Activity (HCT-116 [10])	Activity (HCT-116 [11])	Activity (HCT-116 [12])	Activity (HCT-116 [13])	Activity (HCT-116 [14])	Activity (HCT-116 [15])	Activity (HCT-116 [16])	Activity (HCT-116 [17])	Activity (HCT-116 [18])	IC50 (MCF7) [nM]	Activity (HCT-116 [19])	further results
CC[C@@]1(O)C(=O)OCc2c1cc1n(c2=O)Cc2cc3cc4c(cc3nc2-1)OCO4	Active	Active	Active	inactive	Active	Active	Active	Active	Active	Active	Active	Active	Active	Active	Active	Active	Active	Active	32.2	Active	Activity (HCT-116 [20]): Active; Activity (HCT-116 [21]): 1.3 mm; Activity (HCT-116 [22]): Active; Activity (HCT-116 [23]): Active; Activity (HCT-116 [24]): Active; Activity (HCT-116 [25]): Active; Activity (HCT-116 [26]): Active; Activity (HCT-116 [27]): Active; Activity (HCT-116 [28]): Active; Activity (HCT-116 [29]): Active; Activity (HCT-116 [30]): Active; Activity (HCT-116 [31]): Active; Activity (HCT-116 [32]): Active
CC[C@@]1(O)C(=O)OCc2c1cc1n(c2=O)Cc2c-1nc1cc3c(cc1c2-c1ccc(OC)cc1)OCO3	Active	Active	Active	inactive	Active	Active	Active	Active	Active	Active	Active	Active	Active	Active	Active	Active	Active	Active	45.8	Active	Activity (HCT-116 [33]): Active; Activity (HCT-116 [20]): Active; Activity (HCT-116 [21]): 1.3 mm; Activity (HCT-116 [22]): Active; Activity (HCT-116 [23]): Active; Activity (HCT-116 [24]): Active; Activity (HCT-116 [25]): Active; Activity (HCT-116 [26]): Active; Activity (HCT-116 [27]): Active; Activity (HCT-116 [28]): Active; Activity (HCT-116 [29]): Active; Activity (HCT-116 [30]): Active; Activity (HCT-116 [31]): Active; Activity (HCT-116 [32]): Active

Source: ChEMBL document CHEMBL5376003, “Structure-Activity Relationship of FL118 Platform Position 7 Versus Position 9-Derived Compounds and Their Mechanism of Action and Antitumor Activity” (J Med Chem, 2023)
